According to US12371454B2, “Cyclic peptide compound having Kras inhibitory action” (priority 2019, dated 2025):
Starred links: 1 amine or outer side, 2 acyl side, 3 side chain; linkers in the order of their positions; H or OH if unused. Positions of bridges follow the written chain, without caps; N, C: chain ends. Non-standard residues stand in square brackets, D forms with d. Residues, ends and D or L forms follow the SMILES beside them. *: point of attachment. hPhe(3-Cl-4-CF3) = N[C@@H](CCc1ccc(C(F)(F)F)c(Cl)c1)C(=O)O; hPhe(3-F,4-CF3) = N[C@@H](CCc1ccc(C(F)(F)F)c(F)c1)C(=O)O; hPhe(4-CF3) = N[C@@H](CCc1ccc(C(F)(F)F)cc1)C(=O)O; NMePhe(4-Cl) = CN[C@@H](Cc1ccc(Cl)cc1)C(=O)O; NMePhe(4-Me) = CN[C@@H](Cc1ccc(C)cc1)C(=O)O; NMeGly(cPent) = CN[C@H](C(=O)O)C1CCCC1; Phe(3-I) = N[C@@H](Cc1cccc(I)c1)C(=O)O; NMeCha = CN[C@@H](CC1CCCCC1)C(=O)O; NMeCba = CN[C@@H](CC1CCC1)C(=O)O; NMeChg = CN[C@H](C(=O)O)C1CCCCC1; NMeF = CN[C@@H](Cc1ccccc1)C(=O)O; NMeI = CC[C@H](C)[C@H](NC)C(=O)O; NMeβAla = CN(CCC(=O)[*:2])[*:1]; NMeD = CN[C@@H](CC(=O)O)C(=O)O; NMeL = CN[C@@H](CC(C)C)C(=O)O; NMeV = CN[C@H](C(=O)O)C(C)C; d(β3hA) = C[C@@H](N)CC(=O)O; Pip = O=C(O)[C@@H]1CCCCN1; NMeA = CN[C@@H](C)C(=O)O; NMeAib = CNC(C)(C)C(=O)O; Piperidide = C1CCN(*)CC1; Pyrrolidide = C1CCN(*)C1; Ac5c = NC1(C(=O)O)CCCC1; Aze = O=C(O)[C@@H]1CCN1; X1 = FC1(F)CN(*)CC1(F)F; Aib = CC(C)(N)C(=O)O; Sar = CNCC(=O)O

Each molecule was assayed against T1, Kras and SOS1 (biotin-tagged human Kras loaded with GDP, His-tagged human SOS1) (Homo sapiens, UniProt P01116, G12D) (assay: Protein-protein interaction inhibition between Kras and SOS1 (KrasGl2D-SOS PPI) using AlphaScreen). Details: AlphaScreen; biotin-tagged human Kras loaded with GDP, His-tagged human SOS1; read-out: KRAS G12D-SOS PPI IC50.
T1 construct: made in house; host or cells: E. coli (stated for Kras only)
T1 sequence (P01116 1-188 isoform P01116-2 G12D): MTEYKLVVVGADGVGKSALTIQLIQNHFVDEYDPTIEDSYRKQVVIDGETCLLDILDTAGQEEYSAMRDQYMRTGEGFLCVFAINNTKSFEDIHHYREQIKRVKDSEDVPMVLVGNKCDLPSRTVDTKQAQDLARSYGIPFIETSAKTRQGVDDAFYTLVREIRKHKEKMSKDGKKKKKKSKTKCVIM
Assay type: binding
Method in brief: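 Binding between SOS1 and Kras is detected as bead-proximity luminescence: illuminate Ni-conjugated donors (680 nm), collect 520-620 nm emission from streptavidin-conjugated acceptors; Kras carries biotin and GDP loaded after purification, SOS1 carries a His tag.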
For `CC(C)C[C@@H]1NC(=O)[C@H](CC(C)C)N(C)C(=O)C[C@@H](C(=O)N2CCCCC2)N(C)C(=O)[C@H](C(C)C)N(C)C(=O)C2(CCCC2)NC(=O)[C@@H]2CCCN2C(=O)[C@H](CCc2ccc(C(F)(F)F)c(Cl)c2)NC(=O)CN(C)C(=O)[C@H](CC2CCCCC2)N(C)C(=O)[C@@H]2CCN2C(=O)[C@H](C)N(C)C1=O` [Compound 1754] ([NMeL]L[NMeA][Aze][NMeCha][Sar][hPhe(3-Cl-4-CF3)]P[Ac5c][NMeV][NMeD]-Piperidide; lactam N-11), the IC50 was 67 nM. Work on `CC[C@H](C)[C@@H]1NC(=O)[C@H](CC2CCC2)N(C)C(=O)C[C@@H](C)NC(=O)[C@H](C(C)C)N(C)C(=O)C2(CCCC2)NC(=O)[C@@H]2CCCN2C(=O)[C@H](CCc2ccc(C(F)(F)F)c(Cl)c2)NC(=O)CN(C)C(=O)[C@H](CC2CCCCC2)N(C)C(=O)CN(C)C(=O)CN(C)C1=O` [Compound 230] (cyclo([Ac5c][NMeV][d(β3hA)][NMeCba]I[Sar][Sar][NMeCha][Sar][hPhe(3-Cl-4-CF3)]P)) yielded an IC50 of 39 nM. `CC[C@H](C)[C@@H]1NC(=O)[C@H](CC(C)C)N(C)C(=O)C[C@@H](C(=O)N2CC(F)(F)C(F)(F)C2)NC(=O)[C@H]([C@@H](C)CC)N(C)C(=O)C2(CCCC2)NC(=O)[C@@H]2CCCN2C(=O)[C@H](CCc2ccc(C(F)(F)F)c(Cl)c2)NC(=O)CN(C)C(=O)[C@H](CC2CCCCC2)N(C)C(=O)CN(C)C(=O)CN(C)C1=O` [Compound 1168] ([NMeL]I[Sar][Sar][NMeCha][Sar][hPhe(3-Cl-4-CF3)]P[Ac5c][NMeI]D-X1; lactam N-11) was tested, and the IC50 was 100 nM. With `CC[C@H](C)[C@@H]1NC(=O)[C@H](C(C)C)N(C)C(=O)C[C@@H](C)NC(=O)[C@H](CC(C)C)N(C)C(=O)C2(CCCC2)NC(=O)[C@H](CC(C)C)N(C)C(=O)[C@H](CCc2ccc(C(F)(F)F)c(F)c2)NC(=O)CN(C)C(=O)[C@H](Cc2ccc(Cl)cc2)N(C)C(=O)CN(C)C(=O)CN(C)C1=O` [Compound 851] (cyclo([Ac5c][NMeL][d(β3hA)][NMeV]I[Sar][Sar][NMePhe(4-Cl)][Sar][hPhe(3-F,4-CF3)][NMeL])) the IC50 was 27 nM. `CC[C@H](C)[C@@H]1NC(=O)[C@H](CC(C)C)N(C)C(=O)C[C@@H](C(=O)N2CCCCC2)N(C)C(=O)[C@H](CC(C)C)NC(=O)C(C)(C)N(C)C(=O)[C@H](Cc2ccccc2)NC(=O)[C@H](Cc2cccc(I)c2)NC(=O)CN(C)C(=O)[C@H](Cc2ccc(C)cc2)N(C)C(=O)[C@@H]2CCN2C(=O)[C@H](C)N(C)C1=O` [Compound 1015] ([NMeL]I[NMeA][Aze][NMePhe(4-Me)][Sar][Phe(3-I)]F[NMeAib]L[NMeD]-Piperidide; lactam N-11) was tested, and the IC50 was 18 nM. With `CC[C@H](C)[C@@H]1NC(=O)CCN(C)C(=O)CN(C)C(=O)[C@H](C2CCCC2)N(C)C(=O)C2(CCCC2)NC(=O)[C@@H]2CCCN2C(=O)[C@H](CCc2ccc(C(F)(F)F)c(Cl)c2)NC(=O)CN(C)C(=O)[C@H](CC2CCCCC2)N(C)C(=O)CN(C)C(=O)CN(C)C1=O` [Compound 369] (cyclo([Ac5c][NMeGly(cPent)][Sar][NMeβAla]I[Sar][Sar][NMeCha][Sar][hPhe(3-Cl-4-CF3)]P)) the IC50 was 350 nM. In the case of `CC[C@H](C)[C@@H]1NC(=O)[C@@H]2CCCCN2C(=O)C[C@@H](C)NC(=O)[C@H](CC(C)C)N(C)C(=O)C(C)(C)NC(=O)[C@H](CC(C)C)N(C)C(=O)[C@H](CCc2ccc(C(F)(F)F)cc2)NC(=O)CN(C)C(=O)[C@H](CC2CCCCC2)N(C)C(=O)CN(C)C(=O)CN(C)C1=O` [Compound 31] (cyclo([Aib][NMeL][d(β3hA)][Pip]I[Sar][Sar][NMeCha][Sar][hPhe(4-CF3)][NMeL])), the IC50 is reported as 380 nM. `CC[C@H](C)[C@@H]1NC(=O)[C@H](CC(C)C)N(C)C(=O)C[C@@H](C(=O)N2CCCCC2)N(C)C(=O)[C@H](C2CCCCC2)N(C)C(=O)C2(CCCC2)NC(=O)[C@@H]2CCCN2C(=O)[C@H](CCc2ccc(C(F)(F)F)c(Cl)c2)NC(=O)CN(C)C(=O)[C@H](C)N(C)C(=O)CN(C)C(=O)CN(C)C1=O` [Compound 1681] ([NMeL]I[Sar][Sar][NMeA][Sar][hPhe(3-Cl-4-CF3)]P[Ac5c][NMeChg][NMeD]-Piperidide; lactam N-11) showed an IC50 of 3.1 nM. Molecule `COC[C@@H]1NC(=O)[C@H](CC(C)C)N(C)C(=O)C[C@@H](C(=O)N2CCCCC2)N(C)C(=O)[C@H](C2CCCCC2)N(C)C(=O)C2(CCCC2)NC(=O)[C@@H]2CCCN2C(=O)[C@H](CCc2ccc(C(F)(F)F)c(Cl)c2)NC(=O)CN(C)C(=O)[C@H](CC2CCCCC2)N(C)C(=O)CN(C)C(=O)CN(C)C1=O` [Compound 148] ([NMeL]S(Me)[Sar][Sar][NMeCha][Sar][hPhe(3-Cl-4-CF3)]P[Ac5c][NMeChg][NMeD]-Piperidide; lactam N-11) has an IC50 of 1.8 nM. Molecule `CC[C@H](C)[C@@H]1NC(=O)[C@H](C)N(C)C(=O)C[C@@H](C(=O)N2CCCC2)NC(=O)[C@H](CC(C)C)N(C)C(=O)[C@H](Cc2ccccc2)N(C)C(=O)[C@H](CC(C)C)NC(=O)[C@H](Cc2cccc(I)c2)NC(=O)CN(C)C(=O)[C@H](Cc2ccc(Cl)cc2)N(C)C(=O)CN(C)C(=O)CN(C)C1=O` [Compound 884] ([NMeA]I[Sar][Sar][NMePhe(4-Cl)][Sar][Phe(3-I)]L[NMeF][NMeL]D-Pyrrolidide; lactam N-11) has an IC50 of 63 nM.
